Experimental data taken from paper PMC8620908, “Design, Synthesis, In Vitro Anticancer Evaluation and Molecular Modelling Studies of 3,4,5-Trimethoxyphenyl-Based Derivatives as Dual EGFR/HDAC Hybrid Inhibitors” (Pharmaceuticals, 2021).
“And” between values parts separate entries of the source, which are not always exact repeats. Equal entries are not always repeated. “Also recorded” adds a separate entry of the source.

Tests used:
MCF-7 = experiment: Antiproliferative MTT assay, MCF-7; details: Homo sapiens, MCF7, read-out: Antiproliferative Activity IC50 ± SEM, MCF-7
HDAC1 = HDAC1 (Homo sapiens, UniProt Q13547); experiment: In vitro HDAC inhibition assay, HDAC1
Caspase-3 = Caspase-3 level assay in HepG2 cancer cell line; assay type: cell-based, human
HDAC4 = HDAC4 (Homo sapiens, UniProt P56524); experiment: In vitro HDAC inhibition assay, HDAC4
HDAC6 [1] = experiment: Western blot assay, HDAC6 in HepG2; assay type: cell-based; details: HepG2, 4b used at its IC50 of 0.536 µM
Description: (§1) Western blot assay was carried out according to the previously reported protocol.

HDAC6 [2] = molecular target: T1, HDAC6 (Homo sapiens, UniProt Q9UBN7); experiment: In vitro HDAC inhibition assay, HDAC6
T1 sequence (Q9UBN7 1-1215): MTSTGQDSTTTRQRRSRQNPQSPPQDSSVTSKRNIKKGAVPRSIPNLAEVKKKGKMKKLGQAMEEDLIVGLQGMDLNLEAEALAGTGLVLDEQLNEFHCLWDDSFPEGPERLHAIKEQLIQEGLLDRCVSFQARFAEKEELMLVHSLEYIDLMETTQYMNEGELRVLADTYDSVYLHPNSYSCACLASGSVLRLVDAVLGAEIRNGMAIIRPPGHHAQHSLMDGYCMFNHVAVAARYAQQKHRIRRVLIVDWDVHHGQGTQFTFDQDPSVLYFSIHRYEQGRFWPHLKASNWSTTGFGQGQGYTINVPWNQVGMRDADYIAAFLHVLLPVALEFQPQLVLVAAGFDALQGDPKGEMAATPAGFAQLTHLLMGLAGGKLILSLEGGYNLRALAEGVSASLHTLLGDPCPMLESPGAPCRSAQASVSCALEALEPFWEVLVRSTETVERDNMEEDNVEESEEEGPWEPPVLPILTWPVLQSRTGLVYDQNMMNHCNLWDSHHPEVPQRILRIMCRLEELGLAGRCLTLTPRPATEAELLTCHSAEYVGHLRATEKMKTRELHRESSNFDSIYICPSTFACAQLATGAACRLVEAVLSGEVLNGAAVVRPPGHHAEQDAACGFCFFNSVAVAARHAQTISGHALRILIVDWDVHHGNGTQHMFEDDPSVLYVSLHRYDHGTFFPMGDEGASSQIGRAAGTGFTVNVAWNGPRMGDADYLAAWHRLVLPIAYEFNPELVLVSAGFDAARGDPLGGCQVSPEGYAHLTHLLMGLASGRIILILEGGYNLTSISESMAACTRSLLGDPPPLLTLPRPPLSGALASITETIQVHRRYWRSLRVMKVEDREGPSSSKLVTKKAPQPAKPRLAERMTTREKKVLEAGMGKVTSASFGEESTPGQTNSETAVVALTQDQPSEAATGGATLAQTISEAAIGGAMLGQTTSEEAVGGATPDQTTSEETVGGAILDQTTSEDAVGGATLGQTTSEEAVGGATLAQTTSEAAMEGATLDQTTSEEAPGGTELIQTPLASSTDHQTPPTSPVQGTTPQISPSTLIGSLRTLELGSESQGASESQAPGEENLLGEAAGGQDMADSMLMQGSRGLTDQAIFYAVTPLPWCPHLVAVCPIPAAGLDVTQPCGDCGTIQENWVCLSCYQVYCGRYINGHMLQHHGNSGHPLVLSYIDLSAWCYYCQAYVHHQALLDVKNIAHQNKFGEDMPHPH

EGFR [3] = experiment: Western blot assay, EGFR in HepG2; assay type: cell-based; details: HepG2, 4b used at its IC50 of 0.536 µM
Description: as §1

HCT116 = experiment: Antiproliferative MTT assay, HCT116; details: Homo sapiens, HCT-116, read-out: Antiproliferative Activity IC50 ± SEM, HCT116
Caspase-8 = Caspase-8 level assay in HepG2 cancer cell line; assay type: cell-based, human
Bcl-2 = Bcl-2 level assay in HepG2 cancer cell line; assay type: cell-based; details: HepG2, versus control
HepG2 = experiment: Antiproliferative MTT assay, HepG2; details: Homo sapiens, HepG2, read-out: Antiproliferative Activity IC50 ± SEM, HepG2
HDAC2 = HDAC2 (Homo sapiens, UniProt Q92769); experiment: In vitro HDAC inhibition assay, HDAC2
Bax = Bax level assay in HepG2 cancer cell line; assay type: cell-based
EGFR [4] = molecular target: EGFR (Homo sapiens, UniProt P00533); experiment: EGFR-TK inhibition, cell-free assay; assay type: biochemical
HepG2 cancer cell line [5] = experiment: Cell apoptosis assay, Annexin V/PI flow cytometry; assay type: cell-based
Description: Apoptosis was determined by flow cytometry based on the Annexin-V-fluoresce in isothiocyanate (FITC) and propidium iodide (PI) staining kit (BD Pharmingen, San Diego, CA, USA). See Section 4.2.5 in Supplementary Materials.
4.2.5. Cell apoptosis assay
Apoptosis was determined by flow cytometry based on the Annexin-V-fluoresce in isothiocyanate (FITC) and propidium iodide (PI) staining kit (BD Pharmingen, San Diego, USA). Apoptotic cells were defined as Annexin-V-positive. Cells were grown to approximately ∼70% confluence and exposed to different concentrations of compounds (0, 2, 4, 6 and8 μmol/L) for 24 h. Treated cells were trypsinized, washed twice with PBS and transferred into micro centrifuge tubes for centrifugation at1000 rpm for 5 min at room temperature, then resuspended in binding buffer, 5 μL of FITC and PI were added to per eppendorf tube, cells were vortexed, incubated for 15 min at room temperature in dark. Subsequently, cells were analyzed by flow cytometry (Becton Dickinson, Franklin Lakes, USA).
4.3. Statistical analysis
Computerized GraphPad Prism software was used to statistically analyzed data using one-way ANOVA test followed by Tukey’s as post ANOVA for multiple comparison at P ≤.05. Data were presented as mean ± SEM. […]

HDAC8 = molecular target: T2, HDAC8 (Homo sapiens, UniProt Q9BY41); experiment: In vitro HDAC inhibition assay, HDAC8
T2 sequence (Q9BY41 1-377): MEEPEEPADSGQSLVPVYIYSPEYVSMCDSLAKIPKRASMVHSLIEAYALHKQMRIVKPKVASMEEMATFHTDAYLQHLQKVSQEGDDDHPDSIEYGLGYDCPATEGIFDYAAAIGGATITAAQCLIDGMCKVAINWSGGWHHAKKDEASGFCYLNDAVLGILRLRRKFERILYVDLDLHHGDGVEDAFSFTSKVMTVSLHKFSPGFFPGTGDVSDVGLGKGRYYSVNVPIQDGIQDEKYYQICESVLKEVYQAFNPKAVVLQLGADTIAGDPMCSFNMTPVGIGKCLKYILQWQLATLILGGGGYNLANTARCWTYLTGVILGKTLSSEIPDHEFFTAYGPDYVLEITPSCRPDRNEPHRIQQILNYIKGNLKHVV

HepG2 cancer cell line [6] = experiment: Flow cytometric cell cycle analysis; assay type: cell-based
A549 = experiment: Antiproliferative MTT assay, A549; details: Homo sapiens, A549, read-out: Antiproliferative Activity IC50 ± SEM, A549

HDAC2, sequence (Q92769 whole entry): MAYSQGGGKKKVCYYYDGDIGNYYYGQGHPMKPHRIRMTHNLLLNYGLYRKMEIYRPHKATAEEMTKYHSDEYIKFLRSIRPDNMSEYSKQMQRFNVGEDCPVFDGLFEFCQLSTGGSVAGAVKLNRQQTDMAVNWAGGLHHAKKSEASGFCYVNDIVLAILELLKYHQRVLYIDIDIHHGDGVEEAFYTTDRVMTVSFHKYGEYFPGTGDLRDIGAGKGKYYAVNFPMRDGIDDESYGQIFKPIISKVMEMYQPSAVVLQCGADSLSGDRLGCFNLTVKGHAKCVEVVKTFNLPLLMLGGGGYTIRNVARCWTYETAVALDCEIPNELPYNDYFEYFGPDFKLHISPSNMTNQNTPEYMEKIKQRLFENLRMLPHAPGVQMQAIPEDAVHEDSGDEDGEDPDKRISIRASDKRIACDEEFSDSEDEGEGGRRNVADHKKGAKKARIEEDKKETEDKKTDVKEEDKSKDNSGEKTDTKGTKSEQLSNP
HDAC1, sequence (Q13547 whole entry): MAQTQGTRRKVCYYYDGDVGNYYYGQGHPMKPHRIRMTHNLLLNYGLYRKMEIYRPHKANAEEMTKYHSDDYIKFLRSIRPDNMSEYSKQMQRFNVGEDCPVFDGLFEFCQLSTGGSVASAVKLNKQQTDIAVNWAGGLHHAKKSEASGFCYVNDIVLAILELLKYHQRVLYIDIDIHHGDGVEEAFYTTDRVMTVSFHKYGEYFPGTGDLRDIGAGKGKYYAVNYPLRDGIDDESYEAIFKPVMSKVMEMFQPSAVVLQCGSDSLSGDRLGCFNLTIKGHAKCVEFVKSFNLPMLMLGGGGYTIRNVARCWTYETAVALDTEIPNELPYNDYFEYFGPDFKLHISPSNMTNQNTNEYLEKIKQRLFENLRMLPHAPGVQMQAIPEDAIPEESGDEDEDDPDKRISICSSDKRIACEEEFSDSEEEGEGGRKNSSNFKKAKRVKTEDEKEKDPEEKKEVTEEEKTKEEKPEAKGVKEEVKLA
EGFR (Homo sapiens, UniProt P00533), sequence (P00533 25-1210): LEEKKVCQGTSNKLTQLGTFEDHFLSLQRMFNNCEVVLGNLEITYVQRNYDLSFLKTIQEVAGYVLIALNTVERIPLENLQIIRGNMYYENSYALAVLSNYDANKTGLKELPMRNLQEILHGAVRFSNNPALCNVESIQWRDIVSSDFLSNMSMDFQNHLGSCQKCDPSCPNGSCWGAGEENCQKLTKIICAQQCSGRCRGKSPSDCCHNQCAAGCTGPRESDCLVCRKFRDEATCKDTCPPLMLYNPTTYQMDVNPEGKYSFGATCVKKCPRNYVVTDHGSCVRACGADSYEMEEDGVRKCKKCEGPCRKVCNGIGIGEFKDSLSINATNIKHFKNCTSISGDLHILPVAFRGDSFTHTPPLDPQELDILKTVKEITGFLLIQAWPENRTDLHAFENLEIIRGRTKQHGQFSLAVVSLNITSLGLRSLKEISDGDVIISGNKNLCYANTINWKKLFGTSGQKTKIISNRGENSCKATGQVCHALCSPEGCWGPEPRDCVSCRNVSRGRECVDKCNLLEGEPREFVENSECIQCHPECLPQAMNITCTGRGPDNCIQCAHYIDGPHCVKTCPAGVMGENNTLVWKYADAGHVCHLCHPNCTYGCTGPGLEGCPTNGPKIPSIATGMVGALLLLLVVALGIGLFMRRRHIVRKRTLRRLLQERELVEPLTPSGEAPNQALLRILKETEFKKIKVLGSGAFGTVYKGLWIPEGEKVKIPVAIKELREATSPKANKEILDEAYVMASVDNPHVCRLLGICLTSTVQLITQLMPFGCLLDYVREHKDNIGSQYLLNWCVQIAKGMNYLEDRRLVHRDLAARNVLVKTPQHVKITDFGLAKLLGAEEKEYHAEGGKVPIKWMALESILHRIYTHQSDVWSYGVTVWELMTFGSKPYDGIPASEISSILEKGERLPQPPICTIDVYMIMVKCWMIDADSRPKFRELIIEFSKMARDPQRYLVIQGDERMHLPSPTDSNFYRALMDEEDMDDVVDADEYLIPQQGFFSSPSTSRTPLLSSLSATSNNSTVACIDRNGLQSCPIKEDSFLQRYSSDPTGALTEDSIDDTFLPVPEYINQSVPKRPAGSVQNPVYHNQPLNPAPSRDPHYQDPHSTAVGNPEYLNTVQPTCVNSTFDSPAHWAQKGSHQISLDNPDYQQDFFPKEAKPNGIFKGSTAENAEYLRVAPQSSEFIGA
HDAC4, sequence (P56524 whole entry): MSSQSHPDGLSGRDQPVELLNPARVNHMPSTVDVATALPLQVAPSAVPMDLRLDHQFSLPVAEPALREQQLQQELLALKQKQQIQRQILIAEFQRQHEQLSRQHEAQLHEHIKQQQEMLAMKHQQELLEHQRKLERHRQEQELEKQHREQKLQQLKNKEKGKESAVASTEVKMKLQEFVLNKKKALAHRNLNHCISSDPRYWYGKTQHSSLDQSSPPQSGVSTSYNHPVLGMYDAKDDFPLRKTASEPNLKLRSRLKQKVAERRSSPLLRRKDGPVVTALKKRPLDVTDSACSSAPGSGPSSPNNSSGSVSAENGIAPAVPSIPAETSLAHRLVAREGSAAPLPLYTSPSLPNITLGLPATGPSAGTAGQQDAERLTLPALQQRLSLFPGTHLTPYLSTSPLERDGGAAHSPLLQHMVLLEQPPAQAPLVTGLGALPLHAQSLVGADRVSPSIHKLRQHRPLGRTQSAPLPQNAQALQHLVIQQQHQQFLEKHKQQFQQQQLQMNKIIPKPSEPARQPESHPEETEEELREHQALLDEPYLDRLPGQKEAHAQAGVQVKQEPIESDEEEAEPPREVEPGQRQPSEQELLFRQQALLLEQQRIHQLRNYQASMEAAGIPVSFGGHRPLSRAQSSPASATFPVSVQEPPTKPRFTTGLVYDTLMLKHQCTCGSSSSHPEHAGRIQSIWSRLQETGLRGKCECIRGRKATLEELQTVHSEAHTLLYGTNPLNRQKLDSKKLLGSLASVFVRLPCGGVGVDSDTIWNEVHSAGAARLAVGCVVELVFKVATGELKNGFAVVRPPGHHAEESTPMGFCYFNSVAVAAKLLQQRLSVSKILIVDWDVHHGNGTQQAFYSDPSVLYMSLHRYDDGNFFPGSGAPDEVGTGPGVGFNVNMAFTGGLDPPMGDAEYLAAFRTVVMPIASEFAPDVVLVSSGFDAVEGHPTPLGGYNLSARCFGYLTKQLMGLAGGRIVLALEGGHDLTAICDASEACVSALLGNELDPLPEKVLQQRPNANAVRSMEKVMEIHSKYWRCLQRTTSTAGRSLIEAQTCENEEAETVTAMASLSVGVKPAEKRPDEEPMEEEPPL

`COc1cc(/C=C/C(=O)c2ccc(OCCCCCC(=O)NO)cc2)cc(OC)c1OC` [4b, (E)-N-Hydroxy-6-(4-(3-(3,4,5-Trimethoxyphenyl)Acryloyl)Phenoxy) Hexanamide] was tested, and the IC50 (MCF-7) was 621 ± 30 nM, the IC50 (HDAC1) was 148 nM and the “Caspase-3 Conc” value (Caspase-3) was 483.2 pg/mL and 483.2 ± 14.72 pg/mL. The IC50 (HDAC4) was 5850 nM, the “HDAC6 expression (Western blot)” value (HDAC6 [1]) was “decrease” and the IC50 (HDAC6 [2]) was 60 nM. For the same molecule, the “EGFR expression (Western blot)” value (EGFR [3]) was “decrease”, the IC50 (HCT116) was 1210 ± 70 nM and the “Caspase-8 Fold Change” value (Caspase-8; HepG2, versus control) was 3.15 fold. The “Caspase-8 Conc” value (Caspase-8; HepG2 cancer cell line) was 1.078 ng/mL and 1.078 ± 0.046 ng/mL, the “Bcl-2 Fold Change” value (Bcl-2) was 0.42 fold and the IC50 (HepG2) was 536 ± 30 nM. The IC50 (HDAC2) was 168 nM, the “Bax Fold Change” value (Bax; HepG2, versus control) was 3.75 fold and the “Bax Conc” value (Bax; HepG2 cancer cell line) was 398.9 ± 14.3 pg/mL. For the same molecule, the IC50 (EGFR [4]) was 63 ± 2 nM, the “Apoptosis Late” value (HepG2 cancer cell line [5]; control 0.12) was 24.67 and the “percentage of cell apoptosis (late; upper right quadrant Annexin V/PI)” value (HepG2 cancer cell line [5]; control 0.12%) was 24.67%. The “Apoptosis Early” value (HepG2 cancer cell line [5]; control 0.34) was 9.33, the Necrosis (HepG2 cancer cell line [5]; control 1.7) was 13.21 and the “Apoptosis Total” value (HepG2 cancer cell line [5]; control 2.16) was 47.21. For the same molecule, the IC50 (HDAC8) was 2260 nM, the “Comment (cell cycle arrest)” value (HepG2 cancer cell line [6]) was “cell cycle arrest at G1/S phase; also recorded: cell growth arrest at G1/S” and the “%Pre-G1” value (HepG2 cancer cell line [6]; control 2.16) was 47.21%. The “%G2/M” value (HepG2 cancer cell line [6]; control 20.45) was 7.85%, the “%S” value (HepG2 cancer cell line [6]; control 36.58) was 39.11% and the “%G0–G1” value (HepG2 cancer cell line [6]; control 42.97) was 53.04%. For the same molecule, the IC50 (A549) was 797 ± 40 nM.
